Each block holds one molecule with its values, some of them ahead of it. Calls of active or inactive are those of the source. The rule behind the calls is not given here.
Key:
pre-microRNA 136 [1] = test: Binding affinity to pre-miR-136 RNA (unknown origin) at 0.063 to 1 uM by SPR assay; type: nucleic-acid assay
[2] = Binding affinity to pre-miR-136 RNA delta-C-bulge mutant (unknown origin) at 0.063 to 1 uM by SPR assay
[3] = Binding affinity to pre-miR-136 RNA delta-internal loop mutant (unknown origin) at 0.063 to 1 uM by SPR assay
[4] = Binding affinity to pre-miR-136 RNA hairpin mutant (unknown origin) at 0.063 to 1 uM by SPR assay
pre-microRNA 136 [5] = test: Binding affinity to pre-miR-136 RNA (unknown origin) at 63 nM by SPR assay; type: nucleic-acid assay
[6] = Binding affinity to pre-miR-136 RNA delta-C-bulge mutant (unknown origin) at <0.5 uM by SPR assay
[7] = Binding affinity to pre-miR-136 RNA hairpin mutant (unknown origin) at <0.5 uM by SPR assay
pre-microRNA 136 [8] = test: Binding affinity to pre-miR-136 RNA (unknown origin) assessed as normalized equilibrium binding response (Req) value at 1 uM by SPR assay relative to control; type: nucleic-acid assay
[9] = Binding affinity to pre-miR-136 RNA delta-C-bulge mutant (unknown origin) assessed as normalized equilibrium binding response (Req) value at 1 uM by SPR assay relative to control
[10] = Binding affinity to pre-miR-136 RNA delta-internal loop mutant (unknown origin) assessed as normalized equilibrium binding response (Req) value at 1 uM by SPR assay relative to control
pre-microRNA 136 [11] = test: Binding affinity to C-bulge site of pre-miR-136 RNA (unknown origin) at RNA to compound molar ratio of 1:0 by NMR titration assay; type: nucleic-acid assay
pre-microRNA 136 [12] = test: Binding affinity to internal loop site of pre-miR-136 RNA (unknown origin) at RNA to compound molar ratio of 1:0 by NMR titration assay; type: nucleic-acid assay
pre-microRNA 136 [13] = test: Binding affinity to hairpin loop site of pre-miR-136 RNA (unknown origin) at RNA to compound molar ratio of 1:0 by NMR titration assay; type: nucleic-acid assay
pre-microRNA 136 [14] = test: (§1) Binding affinity to pre-miR-136 RNA (unknown origin) assessed as reduction in human recombinant Dicer-mediated substrate cleavage by measuring cleavage efficiency at 200 uM incubated for 30 mins using 32P-labeled RNA by denaturing polyacrylamide gel electrophoresis method (reference value: 94.3 +/- 2.3%); type: nucleic-acid assay; design: scale not given: the % may be the effect or the level left
[15] = Binding affinity to pre-miR-136 RNA delta-internal loop mutant (unknown origin) assessed as reduction in human recombinant Dicer-mediated substrate cleavage by measuring cleavage efficiency at 200 uM incubated for 30 mins using 32P-labeled RNA by denaturing polyacrylamide gel electrophoresis method (reference value: 94.5 +/- 1.4%); design: scale not given: the % may be the effect or the level left
[16] = as §1, with “pre-miR-136 RNA delta-C-bulge mutant (unknown origin)” for “pre-miR-136 RNA (unknown origin)”, “(reference value: 89.1 +/- 2.3%)” for “(reference value: 94.3 +/- 2.3%)”; design: scale not given: the % may be the effect or the level left
[17] = Binding affinity to pre-miR-136 RNA hairpin mutant (unknown origin) assessed as reduction in human recombinant Dicer-mediated substrate cleavage by measuring cleavage efficiency at 200 uM incubated for 30 mins using 32P-labeled RNA by denaturing polyacrylamide gel electrophoresis method (reference value: 59.1 +/- 2.4%); design: scale not given: the % may be the effect or the level left
pre-microRNA 136 [18] = test: Binding affinity to pre-miR-136 RNA (unknown origin) assessed as reduction in human recombinant Dicer-mediated substrate cleavage incubated for 30 mins using 32P-labeled RNA by denaturing polyacrylamide gel electrophoresis method; type: nucleic-acid assay
pre-microRNA 136 [19] = test: Binding affinity to pre-miR-136 RNA (unknown origin) assessed as reduction in initial velocity of human recombinant Dicer-mediated substrate cleavage at 100 uM incubated for 30 mins using 32P-labeled RNA by denaturing polyacrylamide gel electrophoresis method; type: nucleic-acid assay
pre-microRNA 136 [20] = test: Binding affinity to pre-miR-136 RNA (unknown origin) assessed as reduction in Km(app) for human recombinant Dicer-mediated substrate cleavage at 100 uM incubated for 30 mins using 32P-labeled RNA by denaturing polyacrylamide gel electrophoresis method; type: nucleic-acid assay
pre-microRNA 136 [21] = test: Binding affinity to pre-miR-136 RNA (unknown origin) assessed as reduction in Vmax(app) for human recombinant Dicer-mediated substrate cleavage at 100 uM incubated for 30 mins using 32P-labeled RNA by denaturing polyacrylamide gel electrophoresis method; type: nucleic-acid assay

Kd (pre-microRNA 136 [1]; read-out: Kd): 0.47 µM | Kd ([2]; read-out: Kd): 3200 µM | Kd ([3]; read-out: Kd): 0.45 µM | Kd ([4]; read-out: Kd): 65000 µM | Activity (pre-microRNA 136 [5]): Active | Activity [6]: inactive | Activity [7]: inactive | Activity (pre-microRNA 136 [8]): 4.32 RU | Activity [9]: 1.73 RU | Activity [10]: 4.73 RU | Activity (pre-microRNA 136 [11]): Active | Activity (pre-microRNA 136 [12]): inactive | Activity (pre-microRNA 136 [13]): inactive | Activity (pre-microRNA 136 [14]): 71.9% | Activity [15]: 80.6% | Activity [16]: 80.5% | Activity [17]: 58.2% | Activity (pre-microRNA 136 [18]): Dose-dependent effect | Activity (pre-microRNA 136 [19]): Active | Km (pre-microRNA 136 [20]): 0.0279 µM | Vmax(app) (pre-microRNA 136 [21]): 0.38 nM/min
SMILES: NCCCNc1ccc2c(n1)nc(NCCCN)c1ccccc12

Kd (pre-microRNA 136 [1]): Not Active | Kd [2]: Not Active | Kd [3]: Not Active | Kd [4]: Not Active
SMILES: Nc1ccc2ccc(N)nc2n1

Source: ChEMBL document CHEMBL4392847, “Inhibition of pre-miRNA-136 processing by Dicer with small molecule BzDANP suggested the formation of ternary complex of pre-miR-136-BzDANP-Dicer” (Bioorg Med Chem, 2019)
